# Experimental data reported in article PMC6156125, “Chemistry and Hypoglycemic Activity of GPR119 Agonist ZB-16” (Frontiers in Endocrinology, 2018).
# Assays:
# [1] = system: rats with streptozotocin-nicotinamide (STZ-NA) induced T2D; assay: Hypoglycemic activity after continuous (28 days) oral administration in T2D rat model, OGTT; format: in vivo; conditions: daily oral ZB-16 1 mg/kg or sitagliptin 10 mg/kg for 28 days, STZ-NA T2D
# Procedure: Procedures were performed in 40 female Wistar rats weighing 250–280 g. Streptozotocin-nicotinamide-induced rat model of T2D was used ([24], [25]). Briefly, streptozotocin (Sigma, St. Louis, MO, USA) was administered i.p. to overnight fasted rats (65 mg/kg in 100 mmol/l citrate buffer, Ph 4.5). Nicotinamide (Sigma, St. Louis, MO, USA) (230 mg/kg) dissolved in saline was administered i.p. 15 min before streptozotocin. STZ-NA T2D had been confirmed 72 h after in rats with blood glucose levels in a range 9–14 mmol/l measured in fasting (6 h) conditions. […] Following the continuous oral administration of sitagliptin (10 mg/kg), ZB-16 (1 mg/kg) or saline during 28 days STZ-NA T2D confirmation the fasting blood glucose levels were measured, and oral glucose tolerance test (OGTT) was performed. For OGTT rats received an oral dose of […] glucose dissolved in saline; blood glucose levels were monitored every 30 min for 2 h after glucose administration. Sitagliptin dose was chosen in accordance with published data ([26]).
# [2] = Biotransformation in vitro, microsomal stability (rat); format: in vitro ADME; conditions: for ER / CLh: Rat microsomal fraction; for CLh: in mL/min/kg (unit assumed); for microsomal CLint at 0.5 μM / half-life at 0.5 μM: liver microsomal fraction; for half-life at 0.5 μM: NADPH, read-out: t1/2, min
# Procedure: (§1) The metabolism of the compounds was studied in commercially available microsomal fractions derived from human and rat hepatocytes. Test compounds (0.5 μM) were incubated with microsomal fractions in the presence of NADPH during 30 min in a shaker at 37°C. Reactions were stopped at 0, 5, 10, 15, and 30 min by adding acetonitrile. After proteins precipitation, the remaining amount of the test compound in the supernatant was detected with high performance liquid chromatography tandem-mass spectrometry (HPLC-MS/MS) method using Agilent 1260 liquid chromatograph (Agilent Technologies, Santa Clara, CA, USA) and a QTRAP6500 triple quadrupole mass spectrometer with a TurboIonSpray electro-spraying module (ABSciex, Foster City, CA, USA) ([15]). Incubation was performed twice, with at least 2 measurements for each replicate (n ≥ 3). The half-life (T1/2), the clearance in vitro (CLint) and the remaining amount of substance (% of initial quantity) were calculated.
# physchem = conditions: kinetic from dmso stock
# [3] = Biotransformation in vitro, microsomal stability (human); format: in vitro ADME; conditions: for ER / CLh: Human microsomal fraction; for CLh: in mL/min/kg (unit assumed); for microsomal CLint at 0.5 μM / half-life at 0.5 μM: liver microsomal fraction; for half-life at 0.5 μM: NADPH, read-out: t1/2, min
# Procedure: as §1
# human GPR119 (hGPR119) = molecular target: T1, human GPR119 (hGPR119) (Homo sapiens, UniProt Q8TDV5); assay: Specific (agonistic) activity in vitro, cAMP increase (Lance Ultra cAMP kit) in CHO-K1 cells expressing hGPR119; format: cell-based; conditions: CHO-K1 hGPR119, cAMP
# T1 construct: expressed in transfected cells; host or cells: CHO-K1 (Chinese hamster ovary)
# T1 sequence (Q8TDV5 1-335): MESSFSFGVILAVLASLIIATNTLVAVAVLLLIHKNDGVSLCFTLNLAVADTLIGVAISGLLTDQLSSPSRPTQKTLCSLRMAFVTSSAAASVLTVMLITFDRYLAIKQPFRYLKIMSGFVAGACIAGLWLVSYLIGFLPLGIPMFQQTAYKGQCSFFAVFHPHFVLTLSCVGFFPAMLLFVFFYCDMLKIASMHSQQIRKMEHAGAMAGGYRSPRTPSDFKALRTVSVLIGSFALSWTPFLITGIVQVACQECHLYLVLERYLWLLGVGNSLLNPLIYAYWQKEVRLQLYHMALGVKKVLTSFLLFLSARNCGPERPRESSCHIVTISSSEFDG
# Procedure: Specific activity was evaluated using an immortalized Chinese hamster ovary cell line CHO-K1 steadily expressed human GPR119 (hGPR119). The cells (10^7 ml^−1) were cultured in Dulbecco's modified Eagle medium (DMEM) modified with 10% fetal bovine serum (FBS), revolved continuously at 50 rpm at 37°C in 8% CO2 for 3–4 days. Lance Ultra cAMP kit (Perkin Elmer, Waltham, MA, USA) was chosen as the experimental platform ([13]). The experiments were performed in accordance to the manufacturer's instructions. The agonistic activity of the test compounds was estimated by the increase in intracellular cAMP concentration, assuming the hGPR119 activation is followed by the activation of cellular adenylate cyclase, which increases intracellular cAMP levels ([4], [14]). Known agonists of hGPR119 receptors were used as positive controls to determine the maximal possible effect (MPE). The activity of test compounds was expressed in terms of median effective concentration (EC50).
# CYP3A4 = molecular target: T2, CYP3A4 (Homo sapiens, UniProt P08684); assay: CYP inhibition, Vivid CYP450 Screening Kit; format: in vitro ADME; conditions: 0.0046 to 10 μM tested
# T2 construct: purchased Invitrogen Corporation, Carlsbad, CA, USA
# T2 sequence (P08684 whole entry): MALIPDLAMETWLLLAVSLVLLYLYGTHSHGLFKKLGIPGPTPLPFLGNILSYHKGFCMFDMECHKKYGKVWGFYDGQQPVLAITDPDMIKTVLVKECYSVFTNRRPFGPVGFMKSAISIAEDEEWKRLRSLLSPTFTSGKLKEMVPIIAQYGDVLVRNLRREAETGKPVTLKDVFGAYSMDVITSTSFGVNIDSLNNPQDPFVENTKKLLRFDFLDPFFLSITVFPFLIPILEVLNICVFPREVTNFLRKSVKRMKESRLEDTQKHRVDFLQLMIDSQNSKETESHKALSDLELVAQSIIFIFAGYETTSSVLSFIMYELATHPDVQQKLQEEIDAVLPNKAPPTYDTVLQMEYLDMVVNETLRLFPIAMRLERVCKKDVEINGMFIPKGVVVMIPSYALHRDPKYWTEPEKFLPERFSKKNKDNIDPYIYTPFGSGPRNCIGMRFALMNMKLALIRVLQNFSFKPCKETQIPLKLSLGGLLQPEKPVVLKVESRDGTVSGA
# Procedure: (§2) Briefly, the reaction was initiated by adding NADP^+ and a substrate converted to fluorescent derivates by specific CYP isozyme. The reaction was terminated by adding 1M Tris. The fluorescence of the reaction product, which was proportional to CYP isozyme activity, was measured. […] The minimal signal was defined as the signal obtained without enzyme incubation. The inhibitory action of test compounds on the CYP isozymes was expressed in terms of median inhibitory concentration (IC50).
# CYP2D6 = molecular target: T3, CYP2D6 (Homo sapiens, UniProt P10635); assay: CYP inhibition, Vivid CYP450 Screening Kit; format: in vitro ADME; conditions: 0.0046 to 10 μM tested
# T3 construct: purchased Invitrogen Corporation, Carlsbad, CA, USA
# T3 sequence (P10635 whole entry): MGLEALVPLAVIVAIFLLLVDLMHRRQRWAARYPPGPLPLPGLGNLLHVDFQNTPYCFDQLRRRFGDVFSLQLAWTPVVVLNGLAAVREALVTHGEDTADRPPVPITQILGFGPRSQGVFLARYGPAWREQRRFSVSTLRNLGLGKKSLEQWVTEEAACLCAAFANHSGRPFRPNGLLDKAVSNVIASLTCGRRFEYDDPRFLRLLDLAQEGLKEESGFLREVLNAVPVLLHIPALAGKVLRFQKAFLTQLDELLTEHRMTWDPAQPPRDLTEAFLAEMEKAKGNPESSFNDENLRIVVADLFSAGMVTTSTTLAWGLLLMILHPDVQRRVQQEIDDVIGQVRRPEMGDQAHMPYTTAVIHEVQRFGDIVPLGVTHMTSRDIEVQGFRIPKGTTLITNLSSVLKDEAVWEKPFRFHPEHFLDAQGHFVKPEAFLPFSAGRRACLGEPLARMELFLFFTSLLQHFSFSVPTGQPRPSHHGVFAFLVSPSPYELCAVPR
# Procedure: as §2
# CYP2C9 = molecular target: T4, CYP2C9 (Homo sapiens, UniProt P11712); assay: CYP inhibition, Vivid CYP450 Screening Kit; format: in vitro ADME; conditions: 0.0046 to 10 μM tested
# T4 construct: purchased Invitrogen Corporation, Carlsbad, CA, USA
# T4 sequence (P11712 whole entry): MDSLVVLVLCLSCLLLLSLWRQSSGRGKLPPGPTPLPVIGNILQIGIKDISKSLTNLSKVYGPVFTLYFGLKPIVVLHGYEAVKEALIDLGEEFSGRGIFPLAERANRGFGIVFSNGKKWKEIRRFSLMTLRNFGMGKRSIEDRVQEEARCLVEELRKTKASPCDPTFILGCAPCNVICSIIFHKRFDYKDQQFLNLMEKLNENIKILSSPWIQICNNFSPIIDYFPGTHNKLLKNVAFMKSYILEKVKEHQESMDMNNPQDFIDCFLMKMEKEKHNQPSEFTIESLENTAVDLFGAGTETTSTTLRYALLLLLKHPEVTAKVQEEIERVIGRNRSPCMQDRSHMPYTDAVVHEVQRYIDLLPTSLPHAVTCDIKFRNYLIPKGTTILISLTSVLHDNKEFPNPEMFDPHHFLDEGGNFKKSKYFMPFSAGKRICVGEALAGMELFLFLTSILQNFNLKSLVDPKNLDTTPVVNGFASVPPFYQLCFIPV
# Procedure: as §2
# CYP1A2 = molecular target: T5, CYP1A2 (Homo sapiens, UniProt P05177); assay: CYP inhibition, Vivid CYP450 Screening Kit; format: in vitro ADME; conditions: 0.0046 to 10 μM tested
# T5 construct: purchased Invitrogen Corporation, Carlsbad, CA, USA
# T5 sequence (P05177 1-516): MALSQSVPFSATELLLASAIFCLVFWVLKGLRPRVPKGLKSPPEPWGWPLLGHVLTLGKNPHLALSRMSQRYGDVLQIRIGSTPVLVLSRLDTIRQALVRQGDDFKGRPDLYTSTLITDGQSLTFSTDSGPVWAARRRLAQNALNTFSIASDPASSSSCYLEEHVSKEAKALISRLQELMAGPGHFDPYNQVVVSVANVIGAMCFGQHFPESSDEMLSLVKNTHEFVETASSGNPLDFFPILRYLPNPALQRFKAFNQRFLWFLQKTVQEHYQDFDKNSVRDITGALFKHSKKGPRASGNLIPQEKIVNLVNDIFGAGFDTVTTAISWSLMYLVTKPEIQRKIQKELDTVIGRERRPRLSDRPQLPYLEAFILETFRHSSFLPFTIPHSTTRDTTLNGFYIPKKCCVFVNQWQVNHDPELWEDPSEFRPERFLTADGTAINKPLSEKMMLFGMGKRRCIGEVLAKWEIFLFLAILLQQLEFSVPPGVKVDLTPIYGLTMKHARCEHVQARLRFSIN
# Procedure: as §2
# CYP2C19 = molecular target: T6, CYP2C19 (Homo sapiens, UniProt P33261); assay: CYP inhibition, Vivid CYP450 Screening Kit; format: in vitro ADME; conditions: 0.0046 to 10 μM tested
# T6 construct: purchased Invitrogen Corporation, Carlsbad, CA, USA
# T6 sequence (P33261 whole entry): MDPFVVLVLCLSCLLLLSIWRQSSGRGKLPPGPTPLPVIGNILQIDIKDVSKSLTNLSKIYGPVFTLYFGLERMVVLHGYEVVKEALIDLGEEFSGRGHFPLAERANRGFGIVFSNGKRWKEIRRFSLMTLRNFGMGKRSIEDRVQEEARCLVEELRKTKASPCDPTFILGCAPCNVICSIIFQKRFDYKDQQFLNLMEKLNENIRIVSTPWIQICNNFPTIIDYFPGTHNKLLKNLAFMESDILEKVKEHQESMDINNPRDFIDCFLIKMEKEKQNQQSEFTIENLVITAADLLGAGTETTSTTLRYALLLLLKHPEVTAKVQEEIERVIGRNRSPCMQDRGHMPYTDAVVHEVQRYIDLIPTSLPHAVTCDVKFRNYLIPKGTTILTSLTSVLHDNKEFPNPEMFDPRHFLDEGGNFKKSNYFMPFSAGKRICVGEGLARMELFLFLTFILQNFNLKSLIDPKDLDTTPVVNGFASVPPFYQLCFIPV
# Procedure: as §2
# hERG potassium channels = molecular target: T7, hERG potassium channels (Homo sapiens, UniProt Q12809); assay: Cardiac toxicity, Predictor hERG fluorescence polarization binding
# T7 construct: purchased Invitrogen Corporation, Carlsbad, CA, USA
# T7 sequence (Q12809 whole entry): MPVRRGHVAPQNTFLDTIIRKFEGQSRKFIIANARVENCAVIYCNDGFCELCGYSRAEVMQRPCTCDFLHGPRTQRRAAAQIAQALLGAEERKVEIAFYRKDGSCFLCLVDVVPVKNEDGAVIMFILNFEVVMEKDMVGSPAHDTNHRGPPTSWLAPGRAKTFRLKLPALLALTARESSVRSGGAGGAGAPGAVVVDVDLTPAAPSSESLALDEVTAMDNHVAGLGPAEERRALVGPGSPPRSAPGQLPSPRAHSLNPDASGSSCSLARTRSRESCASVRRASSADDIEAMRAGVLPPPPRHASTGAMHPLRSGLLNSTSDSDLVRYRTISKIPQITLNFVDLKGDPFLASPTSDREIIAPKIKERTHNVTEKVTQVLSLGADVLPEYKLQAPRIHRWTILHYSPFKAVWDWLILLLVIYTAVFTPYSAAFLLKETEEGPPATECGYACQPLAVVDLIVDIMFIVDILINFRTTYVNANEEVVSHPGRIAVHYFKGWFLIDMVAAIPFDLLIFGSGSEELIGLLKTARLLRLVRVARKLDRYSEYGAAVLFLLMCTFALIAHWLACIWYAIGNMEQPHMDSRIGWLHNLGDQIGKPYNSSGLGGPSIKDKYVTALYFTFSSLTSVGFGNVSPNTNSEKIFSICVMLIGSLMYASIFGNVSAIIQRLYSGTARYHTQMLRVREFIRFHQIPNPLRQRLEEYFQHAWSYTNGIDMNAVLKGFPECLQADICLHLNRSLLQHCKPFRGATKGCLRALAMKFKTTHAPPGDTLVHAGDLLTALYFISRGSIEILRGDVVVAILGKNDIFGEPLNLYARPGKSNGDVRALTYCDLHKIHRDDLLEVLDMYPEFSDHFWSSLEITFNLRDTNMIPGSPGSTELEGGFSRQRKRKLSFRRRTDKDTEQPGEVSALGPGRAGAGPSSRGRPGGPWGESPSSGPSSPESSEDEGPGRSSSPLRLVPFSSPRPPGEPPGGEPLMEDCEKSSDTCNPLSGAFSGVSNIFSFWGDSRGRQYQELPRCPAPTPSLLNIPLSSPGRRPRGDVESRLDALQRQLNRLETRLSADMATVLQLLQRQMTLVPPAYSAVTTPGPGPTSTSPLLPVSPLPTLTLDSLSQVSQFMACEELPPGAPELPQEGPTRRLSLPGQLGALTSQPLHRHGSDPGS
# Procedure: Cardiac toxicity was evaluated by estimating the influence of each substance on hERG potassium channels using the in vitro test system Invitrogen® PredictorTM hERG (Invitrogen Corporation, Carlsbad, CA, USA), containing Predictor hERG membrane preparations, fluorescent tracer stock solution and an assay buffer solution. Experimental procedures were conducted in accordance with the PredictorTM hERG test system's manufacturer instructions. Assays were performed in 384-well microplates. Each well contained 5 μL aliquot of each concentration of test compound, 10 μL of (2X) membrane preparation and 5 μL of working tracer solution. The cumulative reaction volume was 20 μl with 1% of DMSO ([19]). All procedures were performed at 4 replicates for each concentration. The plate was allowed to incubate at room temperature for at least 1 h prior to fluorescence polarization measurements performed with a microplate reader Infinite M1000 PRO (Tecan).
# [4] = Biotransformation in vitro, microsomal stability (mouse); format: in vitro ADME
# Procedure: as §1
# [5] = Britton-Robinson universal buffer, pH 2, aqueous buffer
# [6] = Britton-Robinson universal buffer, pH 4, aqueous buffer
# [7] = Britton-Robinson universal buffer, pH 7, aqueous buffer
SMILES,ER [2],CLh [2],microsomal CLint at 0.5 μM [2],half-life at 0.5 μM [2],solubility (physchem; [5]),solubility (physchem; [6]),solubility (physchem; [7]),ER [3],CLh [3],microsomal CLint at 0.5 μM [3],half-life at 0.5 μM [3],EC50 (human GPR119 (hGPR119)),further results
"N[C@@H](CC(=O)N1CCn2c(nnc2C(F)(F)F)C1)Cc1cc(F)c(F)cc1F [sitagliptin, reference compound]",–,–,–,–,–,–,–,–,–,–,–,–,blood glucose levels [1]: reduction
CCN1C(=O)c2ccccc2S(=O)(=O)c2ccc(C(=O)NCc3ccc(F)cc3)cc21 [C530-0339],–,–,–,–,–,–,–,–,–,–,–,10700 nM,–
CCN1C(=O)c2ccccc2S(=O)(=O)c2ccc(C(=O)NCCc3ccc(Cl)cc3)cc21 [C530-0315],–,–,–,–,–,–,–,–,–,–,–,71.3 nM,–
"CC/C(=C(/CC)c1ccc(O)cc1)c1ccc(O)cc1 [Diethylstilbestrol, reference compound]",–,–,–,–,–,–,–,–,–,–,–,–,"solubility (physchem; pH 2, aqueous buffer): 12 µM; solubility (physchem; pH 4, aqueous buffer): 10 µM; solubility (physchem; pH 7, aqueous buffer): 12 µM; Solubility (μM) UB, 2% DMSO pH 2 (pH 2): 15 μM; Solubility (μM) UB, 2% DMSO pH 4 (pH 4): 14 μM; Solubility (μM) UB, 2% DMSO pH 7 (pH 7): 14 μM"

# More lines, main results first:
ER [2],CLh [2],microsomal CLint at 0.5 μM [2],half-life at 0.5 μM [2],solubility (physchem; [5]),solubility (physchem; [6]),solubility (physchem; [7]),ER [3],CLh [3],microsomal CLint at 0.5 μM [3],half-life at 0.5 μM [3],EC50 (human GPR119 (hGPR119)),SMILES,further results
0.81,44.29,126 µL/min/mg,21.9 min,< 3 µM,< 3 µM,< 3 µM,0.95,20.66,1110 µL/min/mg,2.5 min,11 nM,CC(C)(C)OC(=O)N1CCC(COc2ccc(-c3ccc4c(c3)OCS4(=O)=O)cn2)CC1 [ZB-19],–
–,–,–,–,25 µM,< 3 µM,< 3 µM,–,–,–,–,63.5 nM,O=S1(=O)COc2cc(-c3ccc(OCC4CCN(CC(F)(F)F)CC4)c(F)c3)ccc21 [ZB-18],–
–,–,–,–,< 3 µM,< 3 µM,< 3 µM,–,–,–,–,12.5 nM,CC(C)OC(=O)N1CCC(COc2ccc(-c3ccc4c(c3)OCS4(=O)=O)cc2F)CC1 [ZB-17],–
0.41,22.53,21.2 µL/min/mg,131 min,< 3 µM,< 3 µM,< 3 µM,0.76,16.57,68 µL/min/mg,40.8 min,29.3 nM,O=S1(=O)COc2cc(-c3ccc(OCC4CCN(c5ncc(Cl)cn5)CC4)nc3)ccc21 [ZB-20],IC50 (CYP3A4): > 10000 nM; IC50 (CYP2D6): > 10000 nM; IC50 (CYP2C9): > 10000 nM; IC50 (CYP1A2): > 10000 nM; IC50 (CYP2C19): > 10000 nM; Average polarization mP (n = 4) (hERG potassium channels; 1 μM): 261 mP; Unbound hERG % (hERG potassium channels; 1 μM): 89%; Average polarization mP (n = 4) (hERG potassium channels; 10 μM): 263 mP; Unbound hERG % (hERG potassium channels; 10 μM): 91%; EC50 (human GPR119 (hGPR119); values of the text): 29 nM
0.74,40.97,89.2 µL/min/mg,31.1 min,< 3 µM,< 3 µM,< 3 µM,0.94,20.44,666 µL/min/mg,4.16 min,–,CC(C)(C)OC(=O)N1CCC(COc2ccc(-c3ccc4c(c3)OCS4(=O)=O)cc2F)CC1 [ZB-09],"CLh ([4]; Mouse microsomal fraction): 84.06; ER ([4]; Mouse microsomal fraction): 0.93; microsomal CLint at 0.5 μM ([4]; liver microsomal fraction): 324 µL/min/mg; half-life at 0.5 μM ([4]; liver microsomal fraction, read-out: t1/2, min): 8.57 min; EC50 (human GPR119 (hGPR119); values of the text): 4 nM"
